Source: paper PMC5909423, “Antibiotic resistance ABCF proteins reset the peptidyl transferase centre of the ribosome to counter translational arrest” (Nucleic Acids Research, 2018)

Molecular target: T1, LsaA (Enterococcus faecalis, UniProt Q7WT47)
T1 construct: gene lsa
Settings: 1 uM LsaA, 1 mM ATP, 1 uM lincomycin; indirect read-out

T1 sequence (Q7WT47 entry or part of it): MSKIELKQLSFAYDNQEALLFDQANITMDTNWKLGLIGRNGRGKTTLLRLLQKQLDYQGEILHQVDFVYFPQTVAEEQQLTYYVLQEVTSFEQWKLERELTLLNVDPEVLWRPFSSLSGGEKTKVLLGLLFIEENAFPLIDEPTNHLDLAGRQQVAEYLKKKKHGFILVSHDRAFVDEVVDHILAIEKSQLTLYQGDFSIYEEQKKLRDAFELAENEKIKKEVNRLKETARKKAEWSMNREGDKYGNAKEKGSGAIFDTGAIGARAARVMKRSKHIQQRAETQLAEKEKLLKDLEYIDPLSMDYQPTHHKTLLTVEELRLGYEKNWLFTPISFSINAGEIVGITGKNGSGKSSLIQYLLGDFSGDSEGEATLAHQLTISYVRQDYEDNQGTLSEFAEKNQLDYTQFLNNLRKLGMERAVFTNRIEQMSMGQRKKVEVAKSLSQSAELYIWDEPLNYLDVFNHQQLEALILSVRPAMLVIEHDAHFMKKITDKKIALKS

SMILES: Nc1ncnc2c1ncn2[C@@H]1O[C@H](COP(=O)(O)OP(=O)(O)OP(=O)(O)O)[C@@H](O)[C@H]1O [ATP]
- ATP-dependent rescue of puromycin reaction of lincomycin-inhibited E. faecalis 7: in the absence of ATP LsaA has no effect
